For 53 compounds, IC50 results are on record in patent US20250214977A1, “STAT6 INHIBITORS AND USES THEREOF” (Kymera Therapeutics, Inc., priority 2024, published 2025).

This assay has as its system Phosphorylation of STAT6 in human A549 cells. Put plainly: Phosphorylated STAT6 (pSTAT6) flow cytometry assay in human A549 cells. Type of assay: cell-based. Conditions: read-out: STAT6 IL4 pSTAT6 assay in A549 cells: Average IC50. An excerpt: Example 3. Phosphorylated STAT6 (pSTAT6) Flow Cytometry Assay in Human A549 Cells
Phosphorylation of STAT6 in human A549 cells was quantitatively measured using flow cytometry technology.
On to `CN(C)C(=O)c1cc2ccc(C3=CCCN(C(=O)CCn4cccn4)C3)cc2[nH]1` [Example I-826], for which the IC50 fell in the range of 100 to 1000 nM.
For `CCSc1ccccc1-c1cc(C2=CCCN(C(=O)CCn3ccnn3)C2)c(F)c2[nH]c(C(=O)N3CCN(c4ncc(F)cc4OC)CC3)cc12` [Example I-679], the IC50 is less than 100 nM.
In the case of `COc1ccccc1-c1cc(C2=CCCN(C(=O)CCn3ccnn3)C2)c(F)c2[nH]c(C(=O)N3CCN(S(C)(=O)=O)CC3)cc12` [Example I-989], the IC50 is less than 100 nM.
With `COc1ccccc1-c1cc(C2=CCCN(C(=O)CCn3ccnn3)C2)c(F)c2[nH]c(C(=O)N3CC(Oc4ccc(F)cc4)C3)cc12` [Example I-999], the IC50 was less than 100 nM.
`CCc1ccncc1-c1cc(C2=CCCN(C(C)=O)C2)c(F)c2[nH]c(C(=O)N3CCN(c4cc(F)cnc4OC)CC3)cc12` [Example I-699]: the IC50 was 10000 to 100000 nM.
`COc1cc(F)cnc1N1CCN(C(=O)c2cc3c(-c4ccc(C5(C#N)CC5)cc4)cc(C4=CCCN(C(=O)CCn5ccnn5)C4)c(F)c3[nH]2)CC1` [Example I-1140]: the IC50 was less than 100 nM.
For the compound `COc1cc(F)c(F)cc1-c1cc(C2=CCCN(C(=O)CCn3ccnn3)C2)c(F)c2[nH]c(C(=O)N3CCN(c4ccccc4OC)CC3)cc12` [Example I-600], the IC50 is less than 100 nM.
`CCc1cc(C)ncc1-c1cc(C2=CCCN(C(=O)CCn3ccnn3)C2)c(F)c2[nH]c(C(=O)N3CCN(c4ncc(F)cc4OC)CC3)cc12` [Example I-742]: the IC50 was less than 100 nM.
For `Cc1[nH]nc2ccc(-c3cc(C4=CCCN(C(=O)CCn5ccnn5)C4)cc4cc(C(=O)N(C)C)oc34)cc12` [Example I-1075], the IC50 is less than 100 nM.
For `COc1ccccc1-c1cc(C2=CCCN(C(=O)CCn3ccnn3)C2)c(F)c2[nH]c(C(=O)N3CCO[C@H](C)C3)cc12` [Example I-1007], the IC50 was less than 100 nM.
`CN(C)C(=O)c1cc2cc(C3=CCCN(C(=O)CCn4ccnn4)C3)cc(CN3CCCCC3)c2o1` [Example I-1178]: the IC50 is 100 to 1000 nM.
With `CC(=O)N1CCC=C(c2cc(-c3ccc(F)cc3O)c3cc(C(=O)N(C)C)[nH]c3c2F)C1` [Example I-891], the IC50 is 100 to 1000 nM.
As for `CCc1cc(C)ncc1-c1cc(C2=CCCN(C(=O)CCn3ccnn3)C2)c(F)c2[nH]c(C(=O)N3CCN(c4ccc(F)cc4OC)CC3)cc12` [Example I-739], the IC50 was less than 100 nM.
Take `COc1ccccc1-c1cc(C2=CCCN(C(=O)CCn3ccnn3)C2)c(F)c2[nH]c(C(=O)N3CCC(=O)C3)cc12` [Example I-1031]: the IC50 was less than 100 nM.
For `COc1cnccc1-c1cc(C2=CCCN(C(=O)CCn3ccnn3)C2)c(F)c2[nH]c(C(=O)N3CCN(c4ncc(F)cc4OC)CC3)cc12` [Example I-666], the IC50 was greater than 100000 nM.
Then `COc1cc(F)c(C)nc1N1CCN(C(=O)c2cc3c(-c4cnc(C)cc4C(C)C)cc(C4=CCCN(C(=O)CCn5ccnn5)C4)c(F)c3[nH]2)CC1` [Example I-740], with less than 100 nM; and `CN(C)C(=O)c1cc2cc(C3=CCCN(C(=O)CCn4ccnn4)C3)cc(CN3CC(N)C3)c2o1` [Example I-1180], with less than 100 nM; and `COc1ccccc1-c1cc(C2=CCCN(C(=O)CCn3ccnn3)C2)c(F)c2[nH]c(C(=O)N3CCC(c4cccnc4C)CC3)cc12` [Example I-1002], with less than 100 nM.
The same measure for `COc1ccncc1-c1cc(C2=CCCN(C(=O)CCn3ccnn3)C2)c(F)c2[nH]c(C(=O)N3CCN(c4ccccc4)CC3)cc12` [Example I-400]: greater than 100000 nM.
Then `COc1ccncc1-c1cc(C2=CCCN(C(=O)CCn3ccnn3)C2)c(F)c2[nH]c(C(=O)N3CCN(c4ncncc4OC)CC3)cc12` [Example I-429], with less than 100 nM; and `COc1ccccc1-c1cc(C2=CCCN(C(=O)CCn3ccnn3)C2)c(F)c2[nH]c(C(=O)N3CCN(c4c(F)ccc5cnccc45)CC3)cc12` [Example I-972], with less than 100 nM.
Turning to `COc1ccncc1-c1cc(C2=CCCN(C(=O)CCn3ccnn3)C2)c(F)c2[nH]c(C(=O)N3CCN(c4ccc(F)c(OC)n4)CC3)cc12` [Example I-444], the IC50 is less than 100 nM.
As to `COc1cc(F)c(F)cc1-c1cc(C2=CCCN(C(=O)CCn3ccnn3)C2)c(F)c2[nH]c(C(=O)N3CCN(c4ncccc4OC4CC4)CC3)cc12` [Example I-596], the IC50 is less than 100 nM.
Take `COc1cccnc1N1CCN(C(=O)c2cc3c(-c4cnc(C)c(C)c4OC)cc(C4=CCCN(C(=O)CCn5ccnn5)C4)c(F)c3[nH]2)CC1` [Example I-724]: the IC50 was less than 100 nM.
`CCc1ccncc1-c1cc(C2=CCC[C@@H](C(=O)O)C2)c(F)c2[nH]c(C(=O)N3CCN(c4ncc(F)cc4OC)CC3)cc12` (single isomer, unassigned) [Example I-810]: the IC50 was greater than 100000 nM.
In the case of `CCc1ccncc1-c1cc(C2=CCCN(C(=O)OC)C2)c(F)c2[nH]c(C(=O)N3CCN(c4ncc(F)cc4OC)CC3)cc12` [Example I-708], the IC50 is 10000 to 100000 nM.
In the case of `COc1ccccc1-c1cc(C2=CCCN(C(=O)CCn3ccnn3)C2)c(F)c2[nH]c(C(=O)N3CCN(c4cccc(=O)n4C)CC3)cc12` [Example I-1020], the IC50 was less than 100 nM.
With `COc1ccccc1-c1cc(C2=CCCN(C(=O)CCn3ccnn3)C2)c(F)c2[nH]c(C(=O)N3CCC(N(C)C4CC4)C3)cc12` (centres unmarked) [Example I-898], the IC50 was less than 100 nM.
For the compound `COc1ccncc1-c1cc(C2=CCCN(C(C)=O)C2)c(F)c2[nH]c(C(=O)N3CCN(c4ncc(F)cc4OC)CC3)cc12` [Example I-696], the IC50 was greater than 100000 nM.
With `CCc1cc(CC)c(-c2cc(C3=CCCN(C(=O)CCn4cccn4)C3)c(F)c3[nH]c(C(=O)N4CCN(c5nc(C)c(F)cc5OC)CC4)cc23)cn1` [Example I-741], the IC50 lay in the range of 100 to 1000 nM.
In the case of `COc1cc(F)cnc1N1CCN(C(=O)c2cc3c(C4=Cc5ccccc5C4)cc(C4=CCCN(C(=O)CCn5ccnn5)C4)c(F)c3[nH]2)CC1` [Example I-1161], the IC50 fell in the range of 100 to 1000 nM.
For `COc1cc(N2CCN(C(=O)c3cc4c(-c5ccccc5OC)cc(C5=CCCN(C(=O)CCn6ccnn6)C5)c(F)c4[nH]3)CC2)c2ccccc2c1` [Example I-957], the IC50 fell in the range of 100 to 1000 nM.
For `CCc1ccncc1-c1cc(C2=CCCN(C(=O)CCC(=O)O)C2)c(F)c2[nH]c(C(=O)N3CCN(c4ncc(F)cc4OC)CC3)cc12` [Example I-1170], the IC50 is 100 to 1000 nM.
Then `COc1ccccc1-c1cc(C2=CCCN(C(=O)CCn3ccnn3)C2)c(F)c2[nH]c(C(=O)N3CCN(c4ccccc4)CC3)cc12` [Example I-419], with less than 100 nM; and `COCOc1ccc(F)cc1-c1cc(C2=CCCN(C(=O)CCn3ccnn3)C2)c(F)c2[nH]c(C(=O)N3CCN(c4ncc(F)cc4OC)CC3)cc12` [Example I-660], with less than 100 nM.
For the compound `COc1cc(F)cnc1N1CCN(C(=O)c2cc3c(-c4ccc5c(C)nn(C)c5c4)cc(C4=CCCN(C(=O)CCn5ccnn5)C4)c(F)c3[nH]2)CC1` [Example I-623], the IC50 is less than 100 nM.
Regarding `COc1ccccc1-c1cc(C2CN(C(=O)CCn3ccnn3)CC(F)(F)C2)c(F)c2[nH]c(C(=O)N3Cc4cnn(C)c4C3)cc12` (centres unmarked) [Example I-512], the IC50 was less than 100 nM.
In the case of `CCn1c(N2CCN(C(=O)c3cc4c(-c5ccccc5OC)cc(C5=CCCN(C(=O)CCn6ccnn6)C5)c(F)c4[nH]3)CC2)cc2ccccc21` [Example I-967], the IC50 was in the range of 100 to 1000 nM.
Then `COc1cc(-c2cc(C3=CCCN(C(=O)CCn4ccnn4)C3)cc3cc(C(=O)N(C)C)oc23)cc(OC)c1OC` [Example I-1088], with less than 100 nM; and `CCOc1ccccc1-c1cc(C2=CCCN(C(=O)CCn3ccnn3)C2)c(F)c2[nH]c(C(=O)N3CCN(c4ncccc4OC)CC3)cc12` [Example I-412], with greater than 100000 nM.
For `CCc1cnccc1-c1cc(C2=CCCN(C(=O)CCn3ccnn3)C2)c(F)c2[nH]c(C(=O)N3CCN(c4ncccc4OC)CC3)cc12` [Example I-608], the IC50 is greater than 100000 nM.
As for `COc1ccccc1-c1cc(C2=CCCN(C(=O)CCn3ccnn3)C2)c(F)c2[nH]c(C(=O)N3CCN(c4nc(OC(F)F)ccc4OC)CC3)cc12` [Example I-490], the IC50 was greater than 100000 nM.
For `CCCc1cc(C2=CCCN(C(=O)CCn3ccnn3)C2)c(F)c2[nH]c(C(=O)N3CCN(c4ncc(F)cc4OC)CC3)cc12` [Example I-693], the IC50 is greater than 100000 nM.
The same measure for `COc1ccccc1-c1cc(C2=CCCN(C(=O)CCn3ccnn3)C2)c(F)c2[nH]c(C(=O)N3CCN(c4c(F)cccc4OC)CC3)cc12` [Example I-367]: less than 100 nM; for `COc1ccc(C)cc1-c1cc(C2=CCCN(C(=O)C3Cc4ccccc4CN3C=O)C2)cc2cc(C(=O)N(C)C)oc12` (racemic) [Example I-1196]: less than 100 nM; for `CCc1ccncc1-c1cc(C2=CCCN(C(=O)CCn3ccnn3)C2)c(F)c2[nH]c(C(=O)N3CCN(c4ncccc4OC4CC4)CC3)cc12` [Example I-479]: less than 100 nM.
`COc1ccccc1-c1cc(C2=CCCN(C(=O)CCn3ccnn3)C2)c(F)c2[nH]c(C(=O)N3CCN(c4cncc5cccnc45)CC3)cc12` [Example I-954]: the 50% inhibitory concentration (IC50) was less than 100 nM.
As to `COc1ccccc1-c1cc(C2=CCCN(C(=O)CCn3ccnn3)C2)c(F)c2[nH]c(C(=O)N3CCN(c4ncn5c4CCCC5)CC3)cc12` [Example I-1034], the IC50 was less than 100 nM.
As for `CNc1ccc(-c2cc(C3=CCCN(C(=O)CCn4ccnn4)C3)c(F)c3[nH]c(C(=O)N4CCN(C)CC4)cc23)c(OC)c1` [Example I-990], the concentration for half-maximal inhibition (IC50) was less than 100 nM.
For the compound `COc1ccccc1-c1cc(C2=CCCN(C(=O)[C@@H]3Cc4ccccc4CN3C=O)C2)cc2cc(C(=O)N(C)C)oc12` (single isomer, unassigned) [Example I-805], the IC50 fell in the range of 10000 to 100000 nM.
In the case of `COc1ccccc1-c1cc(C2=CCCN(C(=O)CCn3ccnn3)C2)c(F)c2[nH]c(C(=O)N3CCc4ncncc4C3)cc12` [Example I-1010], the IC50 is less than 100 nM.
As to `CCc1cnccc1-c1cc(C(=O)N2CCN(c3ncc(F)cc3OC)CC2)cc2cc(C3=CCCN(C(=O)CCn4ccnn4)C3)n(CC3CC3)c12` [Example I-542], the IC50 was greater than 100000 nM.
The same measure for `COc1ccccc1-c1cc(C2=CCCN(C(=O)CCn3cccn3)C2)c(F)c2[nH]c(C(=O)N3Cc4cnn(C)c4C3)cc12` [Example I-503]: 10000 to 100000 nM.
